Test [1] concerns the target T1, flag-tagged HIF1α (AA 786-826) / His6-tagged p300 (AA 323-423) complex (Homo sapiens, UniProt Q09472).
T1 construct: His6-tagged p300 (AA 323-423); made in house; host or cells: E. coli (pETDuet vector)
Kind of test: HIF1α p300 displacement assay (TR FRET, +CHAPS). The conditions noted are these: read-out: IC50 (nM) (HIF1α_p300 Displacement + CHAPS). The test is classed as binding. Put shortly: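 In this TR-FRET displacement format, peptides compete HIF1α C-terminal transactivation domain off p300-CH. They were preincubated 1 h at room temperature with 300 nM complex in HEPES pH 7.4/NaCl buffer with 7.5 mM CHAPS and 1 mM DTT. Anti-His-D2 (4 nM) and anti-Flag-K (0.5 μM) followed for 2 h, and a one-site fit of the fluorescence ratio gave IC50.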

Test [2] deals with HRE-bla ME-180 cells. Nature of the test: Reporter gene assay (HRE-bla ME-180 HIF reporter, GeneBLAzer). To be noted: for EC50: 24 hour normoxia. Format: cell-based, human. Put shortly: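 A FRET β-lactamase readout of HIF transcription was used. After compound treatment in 0.3% DMSO/media under normoxic conditions, 20 μl of 6× LiveBLAzer-FRET B/G (CCF4-AM) substrate was added. Plates sat 3 hr at room temperature in the dark and were read at 409 Ex/460Em and 409Ex/530Em on a Synergy 2. Inhibition was compared against DMSO vehicle controls, with chetomin as positive control.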
(A reporter such as luciferase makes a cellular process visible.)

Bridge positions count the residues as written; N and C are the ends. Square brackets hold non-standard residues; d marks the D form. Peptide text beside a SMILES is read from it. R8 = C=CCCCCCC[C@@](C)(N)C(=O)O; Cba = N[C@@H](CC1CCC1)C(=O)O; S5 = C=CCCC[C@](C)(N)C(=O)O; Nle = CCCC[C@H](N)C(=O)O

Take `CCCC[C@H](NC(=O)[C@H](C)NC(=O)[C@]1(C)CCCC=CCCCCCC[C@@](C)(NC(=O)[C@H](CCC(=O)O)NC(=O)[C@H](C)NC(=O)[C@@H](NC(=O)[C@H](Cc2ccccc2)NC(C)=O)[C@@H](C)CC)C(=O)N[C@@H](C(C)C)C(=O)N[C@@H](CC(C)C)C(=O)N[C@@H](CCCC)C(=O)N[C@@H](CO)C(=O)N[C@@H](CC(C)C)C(=O)N[C@@H](C(C)C)C(=O)N1)C(=O)N[C@@H](C)C(=O)N[C@@H](CC(C)C)C(=O)N[C@@H](CC(=O)O)C(=O)N[C@@H](C)C(=O)N[C@H](C(N)=O)[C@@H](C)CC` [SP-193] (Ac-FIAE[R8]VL[Nle]SLV[S5]A[Nle]ALDAI-NH2; staple 5-12): in test [1], the concentration for half-maximal inhibition (IC50) (usually the point on the concentration scale where inhibition reaches its midpoint) lay in the range of 400 to 700 nM. In test [2], the “18 h Avg % max inhibition at top conc (HIF Rptr-24 hrs normoxia) (μM)” value (“18 h Avg % max inhibition at top conc” below) was “+ (<10: +)” and the concentration giving a half-maximal response (EC50) (as a rule, the concentration needed to bring the measured effect to its halfway point) was above 30 µM.
The like results for `CCCC[C@@H]1NC(=O)[C@H](CC(C)C)NC(=O)[C@H](CCCNC(=N)N)NC(=O)[C@@](C)(NC(=O)[C@H](CCC(=O)O)NC(=O)[C@H](CC(=O)O)NC(=O)[C@@H](NC(=O)[C@H](Cc2ccccc2)NC(C)=O)[C@@H](C)CC)CCCC=CCCCC2(CCCC=CCCC[C@](C)(C(=O)N[C@@H](CCCC)C(=O)N[C@@H](C)C(=O)N[C@@H](CC(C)C)C(N)=O)NC(=O)[C@H]([C@@H](C)CC)NC(=O)[C@H](C(C)C)NC(=O)[C@H](CC(C)C)NC2=O)NC1=O` (stereo partly drawn) [SP-206] were, in that order, above 700 nM, “+ (<10: +)” and above 30 µM.
In the same order, the values of `CCCC[C@@H]1NC(=O)[C@H](CC(C)C)NC(=O)[C@H](C(C)C)NC(=O)[C@@](C)(NC(=O)[C@H](CCC(=O)O)NC(=O)[C@H](CC(=O)O)NC(=O)[C@@H](NC(=O)[C@H](Cc2ccccc2)NC(C)=O)[C@@H](C)CC)CCCC=CCCCC2(CCCC=CCCC[C@](C)(C(=O)N[C@@H](CCCC)C(=O)N[C@@H](C)C(=O)N[C@@H](CC(C)C)C(N)=O)NC(=O)[C@H]([C@@H](C)CC)NC(=O)[C@H](C(C)C)NC(=O)[C@H](CCCNC(=N)N)NC2=O)NC1=O` (stereo partly drawn) [SP-209] are above 700 nM, “++ (≤10 but <25: ++)” and above 30 µM.
Consider `CCCC[C@@H]1NC(=O)[C@H](CC(C)C)NC(=O)[C@H]([C@@H](C)O)NC(=O)[C@@](C)(NC(=O)[C@H](C)NC(=O)[C@H](CC(=O)O)NC(=O)[C@@H](NC(=O)[C@H](Cc2ccccc2)NC(C)=O)[C@@H](C)CC)CCCC=CCCCC2(CCCC=CCCC[C@](C)(C(=O)N[C@@H](CCCC)C(=O)N[C@@H](C)C(=O)N[C@@H](CC(C)C)C(N)=O)NC(=O)[C@H]([C@@H](C)CC)NC(=O)[C@H](C(C)C)NC(=O)[C@H](CO)NC2=O)NC1=O` (stereo partly drawn) [SP-214], for which the 50% inhibitory concentration (IC50) in test [1] was above 700 nM. For the same compound, in test [2], the “18 h Avg % max inhibition at top conc” value is “+++ (≤25 but <50: +++)” and the EC50 is above 30 µM.
As to `CCCC[C@H](NC(=O)[C@H](CC(C)C)NC(=O)[C@@H](NC(=O)[C@H](CCC(=O)O)NC(=O)[C@H](CCC(=O)O)NC(=O)[C@H](CC(=O)O)NC(=O)[C@@H](NC(=O)[C@H](Cc1ccccc1)NC(C)=O)[C@@H](C)CC)C(C)C)C(=O)N[C@@]1(C)CCCC=CCCC[C@@](C)(C(=O)N[C@@H](CCCC)C(=O)N[C@@H](C)C(=O)N[C@@H](CC(C)C)C(N)=O)NC(=O)[C@H]([C@@H](C)CC)NC(=O)[C@H](C(C)C)NC(=O)[C@H](Cc2ccccc2)NC1=O` [SP-219] (Ac-FIDEEVL[Nle][S5]FVI[S5][Nle]AL-NH2; staple 9-13), in test [1], the IC50 was 400 to 700 nM. Besides, in test [2], the “18 h Avg % max inhibition at top conc” value was “++ (≤10 but <25: ++)” and the EC50 is above 30 µM.
Regarding `CC[C@H](C)[C@H](NC(=O)[C@H](Cc1ccccc1)NC(C)=O)C(=O)N[C@H](C(=O)N[C@@H](CCC(=O)O)C(=O)N[C@@H](CCC(=O)O)C(=O)N[C@H](C(=O)N[C@@H](CC(C)C)C(=O)N[C@@H](CCSC)C(=O)N[C@@]1(C)CCCC=CCCC[C@@](C)(C(=O)N[C@@H](CCSC)C(=O)N[C@@H](C)C(=O)N[C@@H](CC(C)C)C(N)=O)NC(=O)[C@H]([C@@H](C)CC)NC(=O)[C@H](C(C)C)NC(=O)[C@H](CC(C)C)NC1=O)C(C)C)[C@@H](C)O` [SP-231] (Ac-FITEEVLM[S5]LVI[S5]MAL-NH2; staple 9-13), the IC50 in test [1] was above 700 nM. In addition, in test [2], the “18 h Avg % max inhibition at top conc” value is given as “+ (<10: +)” and the 50% effective concentration (EC50) is above 30 µM.
In the same order, the values of `CC[C@H](C)[C@H](NC(=O)[C@H](Cc1ccccc1)NC(C)=O)C(=O)N[C@@H](CC(N)=O)C(=O)N[C@@H](CCC(=O)O)C(=O)N[C@@H](CCC(=O)O)C(=O)N[C@H](C(=O)N[C@@H](CC(C)C)C(=O)N[C@@H](CCSC)C(=O)N[C@@]1(C)CCCC=CCCC[C@@](C)(C(=O)N[C@@H](CCSC)C(=O)N[C@@H](C)C(=O)N[C@@H](CC(C)C)C(N)=O)NC(=O)[C@H]([C@@H](C)CC)NC(=O)[C@H](C(C)C)NC(=O)[C@H](CC(C)C)NC1=O)C(C)C` [SP-232] (Ac-FINEEVLM[S5]LVI[S5]MAL-NH2; staple 9-13) are 400 to 700 nM, “++ (≤10 but <25: ++)” and above 30 µM.
The like results for `CC[C@H](C)[C@H](NC(=O)[C@H](Cc1ccccc1)NC(C)=O)C(=O)N[C@@H](CC(=O)O)C(=O)N[C@@H](CCC(N)=O)C(=O)N[C@@H](CCC(=O)O)C(=O)N[C@H](C(=O)N[C@@H](CC(C)C)C(=O)N[C@@H](CCSC)C(=O)N[C@@]1(C)CCCC=CCCC[C@@](C)(C(=O)N[C@@H](CCSC)C(=O)N[C@@H](C)C(=O)N[C@@H](CC(C)C)C(N)=O)NC(=O)[C@H]([C@@H](C)CC)NC(=O)[C@H](C(C)C)NC(=O)[C@H](CC(C)C)NC1=O)C(C)C` [SP-233] (Ac-FIDQEVLM[S5]LVI[S5]MAL-NH2; staple 9-13) were, in that order, 400 to 700 nM, “+++ (≤25 but <50: +++)” and 15 to 30 µM.
For the compound `CC[C@H](C)[C@H](NC(=O)[C@H](Cc1ccccc1)NC(C)=O)C(=O)N[C@@H](CC(=O)O)C(=O)N[C@@H](CCC(=O)O)C(=O)N[C@@H](CCC(=O)O)C(=O)N[C@H](C(=O)N[C@@H](CC(C)C)C(=O)N[C@@H](CCSC)C(=O)N[C@@]1(C)CCCC=CCCC[C@@](C)(C(=O)N[C@@H](CCSC)C(=O)N[C@@H](C)C(=O)N[C@@H](CC2CCC2)C(N)=O)NC(=O)[C@H]([C@@H](C)CC)NC(=O)[C@H](C(C)C)NC(=O)[C@H](CC(C)C)NC1=O)C(C)C` [SP-237] (Ac-FIDEEVLM[S5]LVI[S5]MA[Cba]-NH2; staple 9-13), the IC50 in test [1] is above 700 nM. In addition, in test [2], the “18 h Avg % max inhibition at top conc” value is on record as “+++ (≤25 but <50: +++)” and the concentration giving a half-maximal response (EC50) was above 30 µM.
The like results for `CC[C@H](C)[C@H](NC(=O)[C@H](Cc1ccccc1)NC(C)=O)C(=O)N[C@@H](CC(=O)O)C(=O)N[C@@H](CCC(=O)O)C(=O)N[C@@H](CO)C(=O)N[C@H](C(=O)N[C@@H](CC(C)C)C(=O)N[C@@H](CCSC)C(=O)N[C@@]1(C)CCCC=CCCC[C@@](C)(C(=O)N[C@@H](CCSC)C(=O)N[C@@H](C)C(=O)N[C@@H](CC(C)C)C(N)=O)NC(=O)[C@H]([C@@H](C)CC)NC(=O)[C@H](C(C)C)NC(=O)[C@H](CC(C)C)NC1=O)C(C)C` [SP-238] (Ac-FIDESVLM[S5]LVI[S5]MAL-NH2; staple 9-13) were, in that order, 400 to 700 nM, “++ (≤10 but <25: ++)” and above 30 µM.
